Assays:
[1] = system: A549; assay: Cytotoxicity against human A549 cells after 24 hrs visualized by Lofflers methylene blue by colony forming assay; format: functional, cell-based
[2] = system: A549; assay: Ratio of IC50 for human A549 cells to IC50 for human A549 cells in presence of beta-D-glucuronidase; format: functional
[3] = system: A549; assay: Cytotoxicity against human A549 cells after 24 hrs visualized by Lofflers methylene blue by colony forming assay in presence of beta-D-glucuronidase; format: functional, cell-based

Row | SMILES | IC50 [1] | Ratio IC50 [2] | IC50 [3]
1 | COC(=O)[C@H]1O[C@@H](Oc2cc3c(c4ccccc24)[C@H]([C@@H](C)Cl)CN3C(=O)c2cc3cc(OCCN(C)C)ccc3[nH]2)[C@H](O)[C@@H](O)[C@@H]1O | 3.3 µM | 1600 | 0.0021 µM
2 | C[C@@H](Cl)[C@@H]1CN(C(=O)c2cc3cc(OCCN(C)C)ccc3[nH]2)c2cc(O[C@@H]3O[C@H](C(=O)O)[C@@H](O)[C@H](O)[C@H]3O)c3ccccc3c21 | 0.61 µM | 700 | 0.0009 µM

Reference: ChEMBL document CHEMBL1150780, “Duocarmycin-based prodrugs for cancer prodrug monotherapy” (Bioorg Med Chem, 2008)
